Reference: US11427556B2, “Urea derivatives as inhibitors of ASK1” (Hepagene Therapeutics (HK) Limited, priority 2017, dated 2022)

Biological target: T1, Recombinant human ASK1 kinase (Homo sapiens, UniProt Q99683)
T1 construct: purchased Invitrogen Inc
T1 sequence (Q99683 1-1374): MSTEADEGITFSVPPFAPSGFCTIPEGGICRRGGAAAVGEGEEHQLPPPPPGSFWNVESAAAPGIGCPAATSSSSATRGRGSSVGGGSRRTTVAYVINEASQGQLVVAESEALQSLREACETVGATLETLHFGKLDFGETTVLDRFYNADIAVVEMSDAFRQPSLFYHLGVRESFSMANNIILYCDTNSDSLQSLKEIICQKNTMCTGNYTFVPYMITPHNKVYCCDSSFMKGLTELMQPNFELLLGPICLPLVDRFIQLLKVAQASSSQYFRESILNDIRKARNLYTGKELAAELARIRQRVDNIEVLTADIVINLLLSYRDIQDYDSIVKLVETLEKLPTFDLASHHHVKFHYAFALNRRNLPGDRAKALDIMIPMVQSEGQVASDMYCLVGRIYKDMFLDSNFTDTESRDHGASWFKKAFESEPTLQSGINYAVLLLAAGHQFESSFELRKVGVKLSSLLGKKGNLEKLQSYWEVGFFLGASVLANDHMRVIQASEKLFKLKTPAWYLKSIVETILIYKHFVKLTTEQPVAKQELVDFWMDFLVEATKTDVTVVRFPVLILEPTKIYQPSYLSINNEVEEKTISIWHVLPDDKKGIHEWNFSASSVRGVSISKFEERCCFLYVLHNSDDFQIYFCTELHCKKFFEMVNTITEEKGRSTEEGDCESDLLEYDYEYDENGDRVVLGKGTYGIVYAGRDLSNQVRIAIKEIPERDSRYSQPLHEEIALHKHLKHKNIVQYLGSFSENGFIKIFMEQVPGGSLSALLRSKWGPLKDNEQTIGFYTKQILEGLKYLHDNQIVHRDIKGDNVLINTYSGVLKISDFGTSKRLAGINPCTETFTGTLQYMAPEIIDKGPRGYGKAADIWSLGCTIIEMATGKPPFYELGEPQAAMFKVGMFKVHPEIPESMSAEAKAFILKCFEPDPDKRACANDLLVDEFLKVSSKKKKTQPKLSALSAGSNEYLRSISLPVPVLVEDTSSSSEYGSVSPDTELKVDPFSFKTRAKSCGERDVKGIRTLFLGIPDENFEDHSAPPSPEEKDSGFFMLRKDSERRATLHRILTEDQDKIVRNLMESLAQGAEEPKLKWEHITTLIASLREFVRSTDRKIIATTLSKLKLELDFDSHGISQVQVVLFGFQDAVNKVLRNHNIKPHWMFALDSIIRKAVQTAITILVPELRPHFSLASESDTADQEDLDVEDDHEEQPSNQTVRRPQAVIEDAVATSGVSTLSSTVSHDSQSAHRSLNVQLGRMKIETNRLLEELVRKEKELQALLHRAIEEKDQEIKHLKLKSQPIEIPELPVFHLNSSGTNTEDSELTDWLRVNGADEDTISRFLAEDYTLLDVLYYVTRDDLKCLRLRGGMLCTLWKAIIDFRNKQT
Experiment: ASK1 kinase HTRF assay (HTRF KinEASE-STK, phosphorylation of biotinylated peptide substrate)
Format: biochemical
Conditions: 3 nM ASK1 kinase, 1 uM STK-substrate-biotin, HTRF detection; read-out: EC50
Outline: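 HTRF KinEASE-STK read-out of biotinylated peptide phosphorylation. Compound incubated with 3 nM ASK1 and 1 uM STK-substrate-biotin in kinase buffer containing 5 mM MgCl2 and 1 mM DTT.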

Structure (SMILES)	EC50
CC(C)n1cnnc1-c1cccc(N2CCN(c3ccc(N4CCNCC4)cn3)C2=O)n1 [Compound V-01, 1-(6-(4-Isopropyl-4H-1,2,4-triazol-3-yl)pyridin-2-yl)-3-(5-(piperazin-1-yl)pyridin-2-yl)imidazolidin-2-one]	< 50 nM
CC(C)n1cnnc1-c1cccc(N2CCN(c3ccc(F)cn3)C2=O)n1 [Compound V-02]	< 50 nM
C[C@H](CO)n1cnnc1-c1cccc(N2CCN(c3ccc(F)cn3)C2=O)n1 [Compound V-03]	< 50 nM
C[C@H](CO)n1cnnc1-c1cccc(N2CCN(c3cc4ccccc4cn3)C2=O)n1 [Compound V-04]	< 50 nM
CC(C)n1cnnc1-c1cccc(N2CCN(c3ccc(-c4ccccc4)cn3)C2=O)n1 [Compound V-05]	< 50 nM
CC(C)n1cnnc1-c1cccc(N2CCN(c3ccc(-c4ccc(F)cc4)cn3)C2=O)n1 [Compound V-06]	< 50 nM
CC(C)n1cnnc1-c1cccc(N2CCN(c3ccc(-c4ccncc4)cn3)C2=O)n1 [Compound V-07]	< 50 nM
C[C@H](CO)n1cnnc1-c1cccc(N2CCN(c3ccc(-c4ccccc4)cn3)C2=O)n1 [Compound V-08]	< 50 nM
CC(C)n1cnnc1-c1cccc(N2CCN(c3ccc(N4CCOCC4)cc3)C2=O)n1 [Compound V-11]	< 50 nM
CC(C)n1cnnc1-c1cccc(N2CCN(c3ccc(N4CCOCC4)cn3)C2=O)n1 [Compound V-12]	< 50 nM
CC(C)n1cnnc1-c1cccc(N2CCN(c3ccc(N4CCOC[C@@H]4C)cn3)C2=O)n1 [Compound V-14]	< 50 nM
CC(C)n1cnnc1-c1cccc(N2CCN(c3ccc(N4CC5CCC(C4)O5)cn3)C2=O)n1 [Compound V-15]	< 50 nM
CC1CN(c2ccc(N3CCN(c4cccc(-c5nncn5C(C)C)n4)C3=O)nc2)CC(C)O1 (centres unmarked) [Compound V-16]	< 50 nM
CC1CN(c2ccc(N3CCN(c4cccc(-c5nncn5C(C)C)n4)C3=O)nc2)CCO1 (centres unmarked) [Compound V-17]	< 50 nM
C[C@H](CO)n1cnnc1-c1cccc(N2CCN(c3ccc(N4CCOCC4)cn3)C2=O)n1 [Compound V-18]	< 50 nM
CC(=O)OC[C@@H](C)n1cnnc1-c1cccc(N2CCN(c3ccc(N4CCOCC4)cn3)C2=O)n1 [Compound V-19]	50 to 500 nM
C[C@H](CO)n1cnnc1-c1cccc(N2CCN(c3ccc(N4CCNCC4)cn3)C2=O)n1 [Compound V-22]	< 50 nM
C[C@H](CO)n1cnnc1-c1cccc(N2CCN(c3ccc(C(=O)N4CCCCC4)cn3)C2=O)n1 [Compound V-23]	< 50 nM
CC(C)n1cnnc1-c1cccc(N2CCN(c3ccc(C(=O)N4CCOCC4)cn3)C2=O)n1 [Compound V-25]	< 50 nM
C[C@H](CO)n1cnnc1-c1cccc(N2CCN(c3ccc(C(=O)N4CCOCC4)cn3)C2=O)n1 [Compound V-26]	< 50 nM
C[C@H](CO)n1cnnc1-c1cccc(N2CCN(c3ccc(C(=O)N4CCNCC4)cn3)C2=O)n1 [Compound V-27]	< 50 nM
Cc1ccc(N(C)C(=O)Nc2cccc(-c3nncn3C(C)C)n2)c(F)c1 [II-01, 1-(2-Fluoro-4-methylphenyl)-3-(6-(4-isopropyl-4H-1,2,4-triazol-3-yl)pyridin-2-yl)-1-methylurea]	500 to 5000 nM

Next, values leading:

EC50	Structure (SMILES)
50 to 500 nM	Cc1ccc(-n2ccn(-c3cccc(-c4nncn4C(C)C)n3)c2=O)c(F)c1 [III-01, 3-(2-Fluoro-4-methylphenyl)-1-(6-(4-isopropyl-4H-1,2,4-triazol-3-yl)pyridin-2-yl)-1H-imidazol-2(3H)-one]
< 50 nM	CC(C)n1cnnc1-c1cccc(-n2ccn(-c3ccc(C(=O)N4CCCCC4)cn3)c2=O)n1 [III-02, 1-(6-(4-Isopropyl-4H-1,2,4-triazol-3-yl)pyridin-2-yl)-3-(5-(piperidine-1-carbonyl)pyridin-2-yl)-1H-imidazol-2(3H)-one]
< 50 nM	CC(C)n1cnnc1-c1cccc(-n2ccn(-c3ccc(N4CCOCC4)cn3)c2=O)n1 [III-03, 1-(6-(4-Isopropyl-4H-1,2,4-triazol-3-yl)pyridin-2-yl)-3-(5-morpholinopyridin-2-yl)-1H-imidazol-2(3H)-one]
< 50 nM	CC(C)n1cnnc1-c1cccc(-n2ccn(-c3ccc(N4CCNCC4)cn3)c2=O)n1 [III-04, 1-(6-(4-Isopropyl-4H-1,2,4-triazol-3-yl)pyridin-2-yl)-3-(5-(piperazin-1-yl)pyridin-2-yl)-1H-imidazol-2(3H)-one]
< 50 nM	Cc1ccc(-n2ccn(-c3cccc(-c4nncn4C(C)C)n3)c2=O)nc1 [III-05]
< 50 nM	CC(C)n1cnnc1-c1cccc(-n2ccn(-c3ccc(-c4ccccc4)cn3)c2=O)n1 [III-06]
< 50 nM	C[C@H](CO)n1cnnc1-c1cccc(-n2ccn(-c3ccc(-c4ccccc4)cn3)c2=O)n1 [III-07]
50 to 500 nM	C[C@H](CO)n1cnnc1-c1cccc(-n2ccn(-c3cc(-c4ccccc4)ccn3)c2=O)n1 [III-08]
< 50 nM	C[C@H](CO)n1cnnc1-c1cccc(-n2ccn(-c3ccc(N4CCOCC4)cn3)c2=O)n1 [III-10]
50 to 500 nM	CC(C)n1cnnc1-c1cccc(NC(=S)Nc2ccccn2)n1 [VI-01, 1-(6-(4-Isopropyl-4H-1,2,4-triazol-3-yl)pyridin-2-yl)-3-(pyridin-2-yl)thiourea]
